Experimental data from patent US20130040944A1, “MGLUR4 ALLOSTERIC POTENTIATORS, COMPOSITIONS, AND METHODS OF TREATING NEUROLOGICAL DYSFUNCTION” (VANDERBILT UNIVERSITY, priority 2009, published 2013).

The compounds below were run against human mGluR4 (Homo sapiens, UniProt Q14833) (assay: potentiation of human mGluR4 in transfected CHO cells, Ca2+-sensitive dye fluorescence, EC20 agonist). Conditions: CHO, read-out: % Glu Max.
Chain of human mGluR4 (Q14833 33-912): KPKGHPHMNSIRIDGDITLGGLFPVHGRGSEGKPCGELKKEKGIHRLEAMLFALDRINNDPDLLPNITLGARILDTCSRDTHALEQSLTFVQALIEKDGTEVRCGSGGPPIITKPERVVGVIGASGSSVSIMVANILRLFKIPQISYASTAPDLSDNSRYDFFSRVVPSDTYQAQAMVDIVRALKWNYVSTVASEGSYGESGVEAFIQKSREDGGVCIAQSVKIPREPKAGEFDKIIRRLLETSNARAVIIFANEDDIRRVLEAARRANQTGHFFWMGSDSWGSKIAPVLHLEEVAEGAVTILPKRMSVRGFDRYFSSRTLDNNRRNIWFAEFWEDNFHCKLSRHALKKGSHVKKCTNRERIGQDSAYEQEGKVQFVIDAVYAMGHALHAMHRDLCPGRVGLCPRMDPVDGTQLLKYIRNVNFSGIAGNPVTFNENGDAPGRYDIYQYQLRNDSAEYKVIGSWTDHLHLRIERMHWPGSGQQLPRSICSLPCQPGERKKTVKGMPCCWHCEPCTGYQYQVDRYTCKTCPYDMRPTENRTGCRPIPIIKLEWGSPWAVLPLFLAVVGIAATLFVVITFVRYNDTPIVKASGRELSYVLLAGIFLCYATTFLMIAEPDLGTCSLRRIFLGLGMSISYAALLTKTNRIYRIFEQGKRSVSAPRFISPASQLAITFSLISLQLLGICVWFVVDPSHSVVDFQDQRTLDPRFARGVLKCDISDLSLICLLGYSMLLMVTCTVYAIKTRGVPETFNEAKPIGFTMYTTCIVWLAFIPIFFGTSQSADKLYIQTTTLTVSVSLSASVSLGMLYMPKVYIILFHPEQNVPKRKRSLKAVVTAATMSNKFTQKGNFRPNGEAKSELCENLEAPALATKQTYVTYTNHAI

Emax	Structure (SMILES)
39%	COc1cccc(C(=O)Nc2ccn(S(=O)(=O)Cc3ccccc3)c2)c1 [Example 3, N-(1-(benzylsulfonyl)-1H-pyrrol-3-yl)-3-methoxybenzamide]
227%	O=C(Nc1ccn(S(=O)(=O)Cc2ccccc2)c1)c1ccco1 [Example 1, N-(1-(benzylsulfonyl)-1H-pyrrol-3-yl)furan-2-carboxamide]
57%	O=C(Nc1ccn(S(=O)(=O)Cc2ccccc2)c1)c1ccncn1 [Example 45, N-(1-(benzylsulfonyl)-1H-pyrrol-3-yl)pyrimidine-4-carboxamide]
129%	O=C(Nc1ccn(S(=O)(=O)Cc2ccccc2)c1)c1cscn1 [Example 42, N-(1-(benzylsulfonyl)-1H-pyrrol-3-yl)thiazole-4-carboxamide]

Same assay, conditions: EC50 (nM), potentiation of EC20 agonist response; Table I

EC50	Structure (SMILES)
> 20000 nM	COc1cccc(C(=O)Nc2ccn(S(=O)(=O)Cc3ccccc3)c2)c1 [Example 3, N-(1-(benzylsulfonyl)-1H-pyrrol-3-yl)-3-methoxybenzamide]
6410 nM	O=C(Nc1ccn(S(=O)(=O)Cc2ccccc2)c1)c1ccco1 [Example 1, N-(1-(benzylsulfonyl)-1H-pyrrol-3-yl)furan-2-carboxamide]
> 20000 nM	O=C(Nc1ccn(S(=O)(=O)Cc2ccccc2)c1)c1ccncn1 [Example 45, N-(1-(benzylsulfonyl)-1H-pyrrol-3-yl)pyrimidine-4-carboxamide]
4620 nM	O=C(Nc1ccn(S(=O)(=O)Cc2ccccc2)c1)c1cscn1 [Example 42, N-(1-(benzylsulfonyl)-1H-pyrrol-3-yl)thiazole-4-carboxamide]

Same assay, conditions: hEC50, human mGluR4 potentiation; unit inferred

EC50	Structure (SMILES)
336 nM	O=C(Nc1ccn(S(=O)(=O)Cc2ccc(Cl)cc2)c1)c1ccccn1 [Example 95, N-(1-((4-chlorobenzyl)sulfonyl)-1H-pyrrol-3-yl)picolinamide]
6130 nM	Cc1cccc(C)c1S(=O)(=O)n1ccc(NC(=O)c2ccco2)c1 [Example 67, N-(1-((2,6-dimethylphenyl)sulfonyl)-1H-pyrrol-3-yl)furan-2-carboxamide]
767 nM	Cc1cccc(S(=O)(=O)n2ccc(NC(=O)c3nccs3)c2)c1 [Example 53, N-(1-(m-tolylsulfonyl)-1H-pyrrol-3-yl)thiazole-2-carboxamide]
351 nM	CC1(C)CCc2cc(S(=O)(=O)n3ccc(NC(=O)c4ccccn4)c3)ccc2O1 [Example 149, N-(1-((2,2-dimethylchroman-6-yl)sulfonyl)-1H-pyrrol-3-yl)picolinamide]
3690 nM	O=C(Nc1ccn(S(=O)(=O)Cc2ccc(F)cc2F)c1)c1ccco1 [Example 56, N-(1-((2,4-difluorobenzyl)sulfonyl)-1H-pyrrol-3-yl)furan-2-carboxamide]
84.3 nM	O=C(Nc1ccn(S(=O)(=O)c2ccc3occc3c2)c1)c1ccccn1 [Example 150, N-(1-(benzofuran-5-ylsulfonyl)-1H-pyrrol-3-yl)picolinamide]
2060 nM	COc1ccccc1S(=O)(=O)n1ccc(NC(=O)c2ccccn2)c1 [Example 72, N-(1-((2-methoxyphenyl)sulfonyl)-1H-pyrrol-3-yl)picolinamide]
129 nM	Cc1ccc(S(=O)(=O)n2ccc(NC(=O)c3ccccn3)c2)cc1Cl [Example 112, N-(1-((3-chloro-4-methylphenyl)sulfonyl)-1H-pyrrol-3-yl)picolinamide]
664 nM	COc1ccc(S(=O)(=O)n2ccc(NC(=O)c3ccccn3)c2)cc1Cl [Example 64, N-(1-((3-chloro-4-methoxyphenyl)sulfonyl)-1H-pyrrol-3-yl)picolinamide]
116 nM	COc1ccc(S(=O)(=O)n2ccc(NC(=O)c3ccccn3)c2)cn1 [Example 140, N-(1-((6-methoxypyridin-3-yl)sulfonyl)-1H-pyrrol-3-yl)picolinamide]
1040 nM	O=C(Nc1ccn(S(=O)(=O)c2ccc(Cl)s2)c1)c1ccccn1 [Example 131, N-(1-((5-chlorothiophen-2-yl)sulfonyl)-1H-pyrrol-3-yl)picolinamide]
158 nM	O=C(Nc1ccn(S(=O)(=O)c2cc(F)c(F)cc2Cl)c1)c1ccccn1 [Example 107, N-(1-((2-chloro-4,5-difluorophenyl)sulfonyl)-1H-pyrrol-3-yl)picolinamide]
3790 nM	O=C(Nc1ccn(S(=O)(=O)c2cccnc2Cl)c1)c1ccccn1 [Example 137, N-(1-((2-chloropyridin-3-yl)sulfonyl)-1H-pyrrol-3-yl)picolinamide]
132 nM	O=C(Nc1ccn(S(=O)(=O)Cc2ccc(F)cc2Cl)c1)c1nccs1 [Example 60, N-(1-((2-chloro-4-fluorobenzyl)sulfonyl)-1H-pyrrol-3-yl)thiazole-2-carboxamide]
119 nM	O=C(Nc1ccn(S(=O)(=O)Cc2c(Cl)cccc2Cl)c1)c1ccccn1 [Example 98, N-(1-((2,6-dichlorobenzyl)sulfonyl)-1H-pyrrol-3-yl)picolinamide]
226 nM	O=C(Nc1ccn(S(=O)(=O)c2cc(F)c(F)cc2F)c1)c1ccccn1 [Example 110, N-(1-((2,4,5-trifluorophenyl)sulfonyl)-1H-pyrrol-3-yl)picolinamide]

EC50	Structure (SMILES)
1910 nM	O=C(Nc1ccn(S(=O)(=O)Cc2ccc(F)cc2F)c1)c1nccs1 [Example 55, N-(1-((2,4-difluorobenzyl)sulfonyl)-1H-pyrrol-3-yl)thiazole-2-carboxamide]
413 nM	O=C(Nc1ccn(S(=O)(=O)c2ccsc2)c1)c1ccccn1 [Example 132, N-(1-(thiophen-3-ylsulfonyl)-1H-pyrrol-3-yl)picolinamide]
2540 nM	O=C(Nc1ccn(S(=O)(=O)c2cccc(Cl)c2F)c1)c1ccco1 [Example 162, N-(1-((3-chloro-2-fluorophenyl)sulfonyl)-1H-pyrrol-3-yl)furan-2-carboxamide]
570 nM	O=C(Nc1ccn(S(=O)(=O)c2ccccc2OC(F)F)c1)c1ccccn1 [Example 73, N-(1-((2-(difluoromethoxy)phenyl)sulfonyl)-1H-pyrrol-3-yl)picolinamide]
144 nM	CN1CCOc2cc(S(=O)(=O)n3ccc(NC(=O)c4ccccn4)c3)ccc21 [Example 146, N-(1-((4-methyl-3,4-dihydro-2H-benzo[b][1,4]oxazin-7-yl)sulfonyl)-1H-pyrrol-3-yl)picolinamide]
426 nM	O=C(Nc1ccn(S(=O)(=O)C(F)c2ccccc2F)c1)c1ccccn1 (stereo not drawn) [Example 105, N-(1-((fluoro(2-fluorophenyl)methyl)sulfonyl)-1H-pyrrol-3-yl)picolinamide]
301 nM	O=C(Nc1ccn(S(=O)(=O)c2ccc(F)c(F)c2F)c1)c1ccccn1 [Example 139, N-(1-((2,3,4-trifluorophenyl)sulfonyl)-1H-pyrrol-3-yl)picolinamide]
4130 nM	O=C(Nc1ccn(S(=O)(=O)c2ccc(Cl)cc2F)c1)c1ccco1 [Example 169, N-(1-((4-chloro-2-fluorophenyl)sulfonyl)-1H-pyrrol-3-yl)furan-2-carboxamide]
447 nM	Cc1cc(S(=O)(=O)n2ccc(NC(=O)c3ccccn3)c2)ccc1Cl [Example 83, N-(1-((4-chloro-3-methylphenyl)sulfonyl)-1H-pyrrol-3-yl)picolinamide]
307 nM	O=C(Nc1ccn(S(=O)(=O)Cc2ccccc2Cl)c1)c1csnn1 [Example 66, N-(1-((2-chlorobenzyl)sulfonyl)-1H-pyrrol-3-yl)-1,2,3-thiadiazole-4-carboxamide]
225 nM	O=C(Nc1ccn(S(=O)(=O)c2ccc(CCl)cc2)c1)c1ccccn1 [Example 147, N-(1-((4-(chloromethyl)phenyl)sulfonyl)-1H-pyrrol-3-yl)picolinamide]
389 nM	O=C(Nc1ccn(S(=O)(=O)c2ccc(Cl)c(F)c2)c1)c1ccccn1 [Example 103, N-(1-((4-chloro-3-fluorophenyl)sulfonyl)-1H-pyrrol-3-yl)picolinamide]
22900 nM	Cc1cc(C)c(S(=O)(=O)n2ccc(NC(=O)c3ccccn3)c2)cc1Cl [Example 114, N-(1-((5-chloro-2,4-dimethylphenyl)sulfonyl)-1H-pyrrol-3-yl)picolinamide]
320 nM	O=C(Nc1ccn(S(=O)(=O)Cc2ccc(F)cc2Cl)c1)c1ccco1 [Example 61, N-(1-((2-chloro-4-fluorobenzyl)sulfonyl)-1H-pyrrol-3-yl)furan-2-carboxamide]
2300 nM	CC(c1ccccc1)S(=O)(=O)n1ccc(NC(=O)c2ccccn2)c1 (stereo not drawn) [Example 96, N-(1-((1-phenylethyl)sulfonyl)-1H-pyrrol-3-yl)picolinamide]
